For the experiment, the system named is HeLa cells. Kind of experiment: Live-cell fluorescence microscopy of intracellular distribution of transferrin-polymer conjugates. The experiment is classed as cell-based, human. As to conditions: 1 hour at 37° C. The method, then:
The intracellular distribution of fluorescently labeled transferrin-polymer conjugates was evaluated in cells using live-cell fluorescence microscopy. Cells were seeded in chamber slides at a concentration of 5000 cells/well. After allowing the cells adhere for 18 hours the media was replaced with fresh media containing the appropriate concentration of the copolymer-transferrin conjugates. Thirty minutes prior to imaging Hoechst (5 μg/mL) was added to the media and allowed to incubate at 37° C. After this time, the media was carefully aspirated and replaced with PBS. Immediately prior to imaging individual wells were aspirated and then treated with 2 μL of a 10 mg/mL cell mask stock in 200 μL of ice cold PBS. After 3 minutes the PBS was removed and washed three times with additional ice cold PBS. The mediChamber slides were placed on a Live-Cell Fluorescence Microscope (Nikon Ti-E) equipped with an environmental control chamber. […] After image acquisition, image stacks were deconvolved using object-based measurement software, Velocity (Perkin Elmer), to remove out-of focus fluorescence for the identification of conjugate containing compartments. To deconvolved image stacks, point spread functions were calculated for the green, blue, and deep red channel and applied using 25 iterations to reach a near 100 percent confidence interval. […]

Take “fluorescently (ALEXA 488) labeled Transferrin”: the “intracellular localisation of fluorescence” value is reported as “strongly localized within endosomes/lysosomes”.

Values taken from US20190365906A1, “RANDOM COPOLYMER THERAPEUTIC AGENT CARRIERS AND ASSEMBLIES THEREOF” (University of Washington through its Center for …, priority 2013, published 2019).
